The test system of the first test is Escherichia coli (ATCC25922) or Staphylococcus aureus (ATCC25923). Kind of test: Antibacterial MIC, microdilution method in Mueller-Hinton medium. It counts as cell-based. To be noted: Escherichia coli, 18 h, MIC in E. coli or S. aureus; two-fold serial dilutions 64 to 0.5 μg/ml in duplicate; 18 hours of incubation at 35° C.; read-out: Potency (MIC). The method in brief:
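Read after 18 h incubation at 35° C, MIC is the lowest compound level that blocked growth. Compounds were tested in duplicate over 64–0.5 μg/ml two-fold dilutions using Mueller-Hinton microdilution per NCCLS standard.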
On the technique in general: Dilution methods test growth across graded concentrations, often in twofold steps.
`N[C@@H]1C[C@H](N)CN(c2nc(Nc3ccc(NC(=O)c4ccc(N5Cc6ccccc6C5)cc4O)cc3)nc(N3C[C@H](N)C[C@H](N)C3)n2)C1` [N-{4-[4-(1,3-dihydro-isoindol-2-yl)-2-hydroxy-benzoylamino]-phenyl}-4,6-Bis-((3R,5S)-3,5-diamino-piperidin-1-yl)-[1,3,5]triazine-2-amine]: the minimal inhibitory concentration (MIC) was less than 16 µg/mL. `CC(C)(C)C(=O)Nc1ccc(S(=O)(=O)Nc2ccc(Nc3nc(N4C[C@H](N)C[C@H](N)C4)nc(N4C[C@H](N)C[C@H](N)C4)n3)cc2O)cc1.Cl` [N-{4-[4-(2,2-dimethyl-propionylamino)-benzenesulfonylamino]-3-hydroxy-phenyl}-4,6-Bis-((3R,5S)-3,5-diamino-piperidin-1-yl)-[1,3,5]triazine-2-amine]: the MIC is more than 64 µg/mL. Same read-out and setting: the figure for `CC1=NN(c2ccc(Nc3nc(N4C[C@H](N)C[C@H](N)C4)nc(N4C[C@H](N)C[C@H](N)C4)n3)cc2)C(=O)C1CCO` (stereo partly drawn) [N-{4-[4-(2-hydroxy-ethyl)-3-methyl-5-oxo-4,5-dihydro-pyrazol-1-yl]-phenyl}-4,6-Bis-((3R,5S)-3,5-diamino-piperidin-1-yl)-[1,3,5]triazine-2-amine] is more than 64 µg/mL; for `Cc1ccc(C(=O)Nc2ccc(Nc3nc(N4CC(N)C4)nc(N4C[C@H](N)C[C@H](N)C4)n3)cc2O)cc1.Cl` [N-{4-[4-(3-Amino-azetidin-1-yl)-6-((3R,5S)-3,5-diamino-piperidin-1-yl)-[1,3,5]triazin-2-ylamino]-2-hydroxy-phenyl}-4-methyl-benzamide] it is less than 64 µg/mL. As for `Cc1ccc(C(=O)Nc2ccc(Nc3nc(N4CCN(c5ccncc5)CC4)nc(N4C[C@H](N)C[C@H](N)C4)n3)cc2O)cc1` [N-{4-[4-((3R,5S)-3,5-Diamino-piperidin-1-yl)-6-(4-pyridin-4-yl-piperazin-1-yl)-[1,3,5]triazin-2-ylamino]-2-hydroxy-phenyl}-4-methyl-benzamide], the minimum inhibitory concentration (MIC) was less than 64 µg/mL. The same measure, in the same setting: the value for `Cc1ccc(C(=O)Nc2ccc(Nc3nc(N4CCCCC4)nc(N4CCC(N5CCCC5)CC4)n3)cc2O)cc1` [N-{4-[4-((3R,5S)-3,5-Diamino-piperidin-1-yl)-6-(4-pyrrolidin-1-yl-piperidin-1-yl)-[1,3,5]triazin-2-ylamino]-2-hydroxy-phhenyl}-4-methyl-benzamide] was less than 64 µg/mL.

The test is the same for the next values; noted with them: Escherichia coli, 18 h, read-out: Potency (MIC).
Turning to `CCCCCC(CC)C(=O)Nc1ccc(S(=O)(=O)Nc2ccc(Nc3nc(N4C[C@H](N)C[C@H](N)C4)nc(N4C[C@H](N)C[C@H](N)C4)n3)cc2O)cc1` (stereo partly drawn) [N-{4-[4-(2-ethyl-heptanoylamino)-benzenesulfonylamino]-3-hydroxy-phenyl}-4,6-Bis-((3R,5S)-3,5-diamino-piperidin-1-yl)-[1,3,5]triazine-2-amine], the MIC was less than 16 µg/mL. `NC1CN(c2nc(Nc3ccc(NC(=O)c4ccc(Cl)cc4)c(O)c3)nc(N3C[C@H](N)C[C@H](N)C3)n2)C1` [N-{4-[4-(3-Amino-azetidin-1-yl)-6-((3R,5S)-3,5-diamino-piperidin-1-yl)-[1,3,5]triazin-2-ylamino]-2-hydroxy-phenyl}-4-chloro-benzamide]: the minimum inhibitory concentration (MIC) is less than 16 µg/mL. On the same count and under the same terms, the figure for `NC[C@H]1[C@@H](O)CCN1c1nc(Nc2ccc(NC(=O)c3ccc(Cl)cc3)c(O)c2)nc(N2C[C@H](N)C[C@H](N)C2)n1` [N-{4-[4-((2S,3S)-2-Aminomethyl-3-hydroxy-pyrrolidin-1-yl)-6-((3R,5S)-3,5-diamino-piperidin-1-yl)-[1,3,5]triazin-2-ylamino]-2-hydroxy-phenyl}-4-chloro-benzamide] is less than 64 µg/mL; for `Cc1ccc(C(=O)Nc2ccc(Nc3nc(N4C[C@H](N)C[C@H](N)C4)nc(N4CC[C@H](O)[C@@H]4CN)n3)cc2O)cc1` [N-{4-[4-((2S,3S)-2-Aminomethyl-3-hydroxy-pyrrolidin-1-yl)-6-((3R,5S)-3,5-diamino-piperidin-1-yl)-[1,3,5]triazin-2-ylamino]-2-hydroxy-phenyl}-4-methyl-benzamide] it is less than 16 µg/mL; for `Cc1ccc(S(=O)(=O)N(Cc2ccccc2)c2ccc(Nc3nc(N4C[C@H](N)C[C@H](N)C4)nc(N4C[C@H](O)C[C@H]4CN)n3)cc2O)cc1` [N-{4-[4-((2S,4R)-2-Aminomethyl-4-hydroxy-pyrrolidin-1-yl)-6-((3R,5S)-3,5-diamino-piperidin-1-yl)-[1,3,5]triazin-2-ylamino]-2-hydroxy-phenyl}-N-benzyl-4-methyl-benzenesulfonamide] it is less than 64 µg/mL. For `NC[C@@H]1C[C@H](N)CN1c1nc(Nc2ccc(NC(=O)c3ccc(O)cc3O)c(O)c2)nc(N2C[C@H](N)C[C@H](N)C2)n1` [N-{4-[4-((2S,4S)-4-Amino-2-aminomethyl-pyrrolidin-1-yl)-6-((3R,5S)-3,5-diamino-piperidin-1-yl)-[1,3,5]triazin-2-ylamino]-2-hydroxy-phenyl}-2,4-dihydroxy-benzamide], the MIC is less than 16 µg/mL.

Take `NC[C@@H]1C[C@H](N)CN1c1nc(Nc2ccc(NC(=O)c3ccc(Cl)cc3O)c(O)c2)nc(N2C[C@H](N)C[C@H](N)C2)n1` [N-{4-[4-((2S,4S)-4-Amino-2-aminomethyl-pyrrolidin-1-yl)-6-((3R,5S)-3,5-diamino-piperidin-1-yl)-[1,3,5]triazin-2-ylamino]-2-hydroxy-phenyl}-4-chloro-2-hydroxy-benzamide]: the MIC was less than 16 µg/mL. The same measure, in the same setting: the figure for `NC[C@@H]1C[C@H](N)CN1c1nc(Nc2ccc(NC(=O)c3ccc(Cl)cc3)c(O)c2)nc(N2C[C@H](N)C[C@H](N)C2)n1` [N-{4-[4-((2S,4S)-4-Amino-2-aminomethyl-pyrrolidin-1-yl)-6-((3R,5S)-3,5-diamino-piperidin-1-yl)-[1,3,5]triazin-2-ylamino]-2-hydroxy-phenyl}-4-chloro-benzamide] is less than 16 µg/mL; for `Cc1ccc(C(=O)Nc2ccc(Nc3nc(N4C[C@H](N)C[C@H](N)C4)nc(N4C[C@@H](N)C[C@H]4CN)n3)cc2O)cc1` [N-{4-[4-((2S,4S)-4-Amino-2-aminomethyl-pyrrolidin-1-yl)-6-((3R,5S)-3,5-diamino-piperidin-1-yl)-[1,3,5]triazin-2-ylamino]-2-hydroxy-phenyl}-4-methyl-benzamide] it is less than 64 µg/mL. On the same count and under the same terms, the figure for `Cc1ccc(S(=O)(=O)N(Cc2ccccc2)c2ccc(Nc3nc(N4C[C@H](N)C[C@H](N)C4)nc(N4C[C@@H](N)C[C@H]4CN)n3)cc2O)cc1` [N-{4-[4-((2S,4S)-4-Amino-2-aminomethyl-pyrrolidin-1-yl)-6-((3R,5S)-3,5-diamino-piperidin-1-yl)-[1,3,5]triazin-2-ylamino]-2-hydroxy-phenyl}-N-benzyl-4-methyl-benzenesulfonamide] is less than 64 µg/mL. Still for that read-out and setting: the figure for `N[C@@H]1C[C@H](N)CN(c2nc(Nc3ccc(NC(=O)c4ccc(Cl)cc4)c(O)c3)nc(N3C[C@@H](N)C[C@H]3CO)n2)C1` [N-{4-[4-((2S,4S)-4-Amino-2-hydroxymethyl-pyrrolidin-1-yl)-6-((3R,5S)-3,5-diamino-piperidin-1-yl)-[1,3,5]triazin-2-ylamino]-2-hydroxy-phenyl}-4-chloro-benzamide] is less than 64 µg/mL. `Cc1ccc(S(=O)(=O)N(Cc2ccccc2)c2ccc(Nc3nc(N4C[C@H](N)C[C@H](N)C4)nc(N4C[C@@H](N)C[C@H]4CO)n3)cc2O)cc1` [N-{4-[4-((2S,4S)-4-Amino-2-hydroxymethyl-pyrrolidin-1-yl)-6-((3R,5S)-3,5-diamino-piperidin-1-yl)-[1,3,5]triazin-2-ylamino]-2-hydroxy-phenyl}-N-benzyl-4-methyl-benzenesulfonamide]: the MIC is less than 64 µg/mL. On the same count and under the same terms, the figure for `Cc1ccc(S(=O)(=O)N(Cc2ccccc2)c2ccc(Nc3nc(N4C[C@H](N)C[C@H](N)C4)nc(N4CC[C@H](O)[C@H](CN)C4)n3)c(O)c2)cc1` [N-{4-[4-((3R,4S)-3-Aminomethyl-4-hydroxy-piperidin-1-yl)-6-((3R,5S)-3,5-diamino-piperidin-1-yl)-[1,3,5]triazin-2-ylamino]-3-hydroxy-phenyl}-N-benzyl-4-methyl-benzenesulfonamide] is less than 64 µg/mL. Still for that read-out and setting: the figure for `NC[C@@H]1C[C@H](CN)CN(c2nc(Nc3ccc(NC(=O)c4ccc(Cl)cc4)c(O)c3)nc(N3C[C@H](N)C[C@H](N)C3)n2)C1` [N-{4-[4-((3R,5S)-3,5-Bis-(aminomethyl)-piperidin-1-yl)-6-((3R,5S)-3,5-diamino-piperidin-1-yl)-[1,3,5]triazin-2-ylamino]-2-hydroxy-phenyl}-4-chloro-benzamide] is less than 16 µg/mL; for `Cc1ccc(C(=O)Nc2ccc(Nc3nc(N4C[C@H](N)C[C@H](N)C4)nc(N4CCC[C@@H](O)C4)n3)cc2O)cc1` [N-{4-[4-((3R,5S)-3,5-Diamino-piperidin-1-yl)-6-((R)-3-hydroxy-piperidin-1-yl)-[1,3,5]triazin-2-ylamino]-2-hydroxy-phenyl}-4-methyl-benzamide] it is more than 64 µg/mL; for `Cc1ccc(C(=O)Nc2ccc(Nc3nc(NC4CCNCC4)nc(N4C[C@H](N)C[C@H](N)C4)n3)cc2O)cc1` [N-{4-[4-((3R,5S)-3,5-Diamino-piperidin-1-yl)-6-(piperidin-4-ylamino)-[1,3,5]triazin-2-ylamino]-2-hydroxy-phenyl}-4-methyl-benzamide] it is less than 16 µg/mL.

Regarding `COc1nc(Nc2ccc(NC(=O)c3ccc(C)cc3)c(O)c2)nc(N2C[C@H](N)C[C@H](N)C2)n1` [N-{4-[4-((3R,5S)-3,5-Diamino-piperidin-1-yl)-6-methoxy-[1,3,5]triazin-2-ylamino]-2-hydroxy-phenyl}-4-methyl-benzamide], the MIC is less than 64 µg/mL.

The test is the same for the next values; noted with them: MIC in E. coli or S. aureus; two-fold serial dilutions 64 to 0.5 μg/ml in duplicate; 18 hours of incubation at 35° C.
As for `NC[C@@H]1C[C@H](N)CN1c1nc(Nc2ccc(NC(=O)C(=O)c3c[nH]c4ccccc34)c(O)c2)nc(N2C[C@H](N)C[C@H](N)C2)n1` [N-{4-[4-((2S,4S)-44-Amino-2-aminomethyl-pyrrolidin-1-yl)-6-((3R,5S)-3,5-diamino-piperidin-1-yl)-[1,3,5]triazin-2-ylamino]-2-hydroxy-phenyl}-2-(1H-indol-3-yl)-2-oxo-acetamide], the “Potency (MIC)” value was “++ (++ means MIC<16 μg/ml in E. coli or S. aureus)”.

The term MIC denotes the least concentration at which growth counts as inhibited.

The record behind these values is patent publication US7223759B2, “Antibacterial 3,5-diaminopiperidine-substituted aromatic and heteroaromatic compounds” (Anadys Pharmaceuticals, Inc., priority 2003, dated 2007).
